Laboratory results published in patent publication US10709724B2, “Methods of treating mitochondrial dysfunction” (Ecole Polytechnique Federale de Lausanne (EPFL), priority 2011, dated 2020).
Several values for one entry are separate records, joined by “and”; a condition that tells them apart may be missing. Equal values may be shown once. Entries after “also recorded” stand apart in the source; their conditions may differ.

How the values were obtained:
C2C12 myotubes = assay: Intracellular NAD+ content in C2C12 myotubes treated with PARP inhibitors; type: cell-based
Experimental: Cell Culture, Transfection, Adenoviral Infection and Mitochondrial Characterization. HEK293T, MEF and C2C12 cells were cultured in DMEM (4.5 g/l glucose, 10% FCS). PARP-1^+/+ and PARP-1^−/− MEFs were prepared as described in (Menissier-de Murcia et al., 1997). SIRT1 and MEFs were kindly provided by Fred Alt (Chea et al., 2005). SIRT3 MER were established according to standard techniques from conditional SERT3^−/− mice. (Picard, F., Gehin, M., Annicotte, J., Rocchi, S., Champy, M. F., O'Malley, B. W., Chambon, P., and Auwerx, J. (2002). SRC-1 and TIF2 control energy balance between white and brown adipose tissues. Cell 111, 931-941.) Deletion of the SIRT3 gene was induced via infection with adenovirus encoding for the Cre recombinase. HEK293T cells were transfected using JetPei reagent (Polyplus Transfections, Illkirch, France) according to the manufacturer's instructions. C2C12 cells were differentiated in DMEM (4.5 g/L glucose, 2% horse serum) after reaching confluency for 2 days, followed by 2 days of PJ34 treatment (10 μM). PARP-1 shRNA constructs were described in (Shah et al., 2005). Human PARP-1 and siRNAs were obtained from Dharmacon (Thermo Scientific). The adenovirus encoding for FLAG-HA-PGC-1α, control and SIRT1 shRNAs were a kind gift from Pere Puigserver and were used (MOI=100) in C2C12 myotubes as described (Canto et al., 2009). Mitochondrial charge determination was performed as described (Bai et al., 2001) and DNA strand breaks were quantified by TUNEL assays according to the manufacturer's instructions (Millipore).
NAD^+ NAM Determination. NAD^+ levels in cultured cells were determined using a commercial kit (Enzychrom™, BioAssays Systems, CA). For tissue samples NAD^+ and NAM levels were determined as described in (Sauve et al., 2005). In brief, to a weighed aliquot of frozen pulverized tissue we added as standards, ^18O-NAD^+ (typically 2.00 nmol) and ^18O-NAM (typically 2.00 nmol). 70 L of ice-cold 7% perchloric acid was then added and the sample was vortexed and sonicated three times, then centrifuged. Clear supernatant was removed and neutralized by additions of 3 M NaOH and 1 M phosphate buffer (pH=9), then centrifuged. Clear supernatant was injected onto HPLC C-18 column with 20 mM ammonium acetate eluent to separate NAD^+ and NAM from other cellular components, NAD^+ and NAM peaks (260 nm absorbance) were collected. Collections were lyophilized to dryness and subjected to MALDI-TOF analysis. For NAD^+ measurement, ratio of intensities for m/z=664 and 666 peaks, corresponding to ^16O- and ^18O-NAD^+ isotopomers, was multiplied by 2.00 nmol and then divided by tissue weight to determine NAD+ concentration in the sample. For NAM the ratio of intensities for m/z=123 and 125 peaks, corresponding to ^16O- and ^18O-NAM isotopomers, was multiplied by 2.00 nmol and then divided by tissue weight to determine NAM concentration in the sample. Corrections were applied for isotopic abundance. Other NAD metabolites were determined as previously described (Yang and Sauve, Synthesis of nictotinamide riboside and derivatives: effective agents for increasing nictinomide adenine dinucleotide concentrations in mammalian cells. J Med Chem 50, 6458-6461 (2006)).

C57Bl/6J mice = assay: NAD+ content in mouse tissues after one week of supplemented chow; type: in vivo; conditions: 400 mg/kg/day in chow; for muscle NAD+ content: quadriceps
Experimental: Animal Experiments. […] In other animal experiments, 8 weeks-old male C57Bl/6J mice were purchased from Charles River and powder chow (D12450B) and high fat (D12492) diets were from Research Diets Inc (New Brunswick, N.J., USA). 80 ml of water per kg of powder CD were used to make food pellets. 40 ml of water per kg of powder HFD were used to make food pellets. […] Mice were housed separately, had ad libitum access to water and food and were kept under a 12 h dark-light cycle. Mice were fed with homemade pellets from 10 weeks of age. […] All animal experiments were carried out according to local national and EU ethical guidelines. To monitor body weight, mice were weighed and the food consumption was measured each week on the same day. In case of PJ34 treatment, mice received each 12 h (at 7:00 and 19:00) 10 mg/kg PJ34 by intraperitoneal injection for 5 continuous days. In all studies animals were killed (at 14:00) either after CO2 inhalation or cervical dislocation after 6 h of fasting (starting at 8:00), and tissues were collected and processed as specified below. […] Plasma insulin and was determined in heparinized plasma samples using specific ELISA kits (Mercodia). Blood samples were collected in heparinized tubes and plasma was isolated after centrifugation. Plasma parameters were measured using a Cobas c111 (Roche Diagnostics). […] The respiratory quotient was the ratio of CO2 production over O2 consumption. During actimetry, beamline crossings were summarized each 15 minutes.
NAD^+ NAM Determination. NAD^+ levels in cultured cells were determined using a commercial kit (Enzychrom™, BioAssays Systems, CA). […] 70 L of ice-cold 7% perchloric acid was then added and the sample was vortexed and sonicated three times, then centrifuged. Clear supernatant was removed and neutralized by additions of 3 M NaOH and 1 M phosphate buffer (pH=9), then centrifuged. Clear supernatant was injected onto HPLC C-18 column with 20 mM ammonium acetate eluent to separate NAD^+ and NAM from other cellular components, NAD^+ and NAM peaks (260 nm absorbance) were collected. Collections were lyophilized to dryness and subjected to MALDI-TOF analysis. […] Corrections were applied for isotopic abundance.

C. elegans [1] = assay: Quantitative RT-PCR in worms; type: in vivo
Experimental: mRNA and mtDNA Analysis. Total RNA was prepared using TRIzol (Invitrogen) according to the manufacturer's instructions. RNA was treated with DNase, and 2 μg of RNA was used for reverse transcription (RT). cDNA was purified on QIAquick PCR cleanup columns (Qiagen, Valencia, Calif., USA). 50× diluted cDNA was used for RT-quantitative PCR (RT-VCR) VCR) reactions (Bai et al., 2007). The RT-qPCR reactions were performed using the Light-Cycler system (Roche Applied Science) and a qPCR Supermix (Qiagen) with the primers for mice summarized in Table 1 and 4, and with the primers for worms summarized on Table 7. mtDNA quantification was performed as described (Lagouge et al., 2006) with the primers indicated in Table 2 and 5.

C. elegans [2] = assay: Confocal microscopy of mitochondria in body wall muscle (pmyo-3::mito::GFP reporter); conditions: in vivo
Experimental: Confocal Microscopy and Image Processing Worms were immobilized with 6 mM solution of tetramisole hydrochloride (Sigma, Buchs, Switzerland) in M9 and mounted on 6% agarose pads on glass slides. Images of worms were acquired using Zeiss LSM 700 Upright confocal microscope (Carl Zeiss AG, Oberkochen, Germany) under non-saturating exposure conditions. All the snapshots were taken from the same part of C. elegans: muscles from the upper part of the worm, excluding the regions of oesophagus and vulva. For each condition multiple worms were observed and imaged. Image processing was performed with the Fiji software. One of the critical issues during the imaging process was the position of the worm, as it influences the level of background. For the uniformity of the represented images, contrast and brightness were adjusted in order, to eliminate the undesirable background signal. Neither of these manipulations was affecting the mitochondrial shape. Tracing of the mitochondrial network contour was done by the use of Gaussian blur filter followed by the application of Laplacian operator.

C. elegans [3] = assay: Worm respiration assay (Seahorse XF24); type: in vivo; conditions: day 3 adult worms
Experimental: (§1) Worm Respiration Assays Oxygen consumption was measured using the Seahorse XF24 equipment (Seahorse Bioscience Inc., North Billerica, Mass.) as described in Yamamoto et al. Typically, 200 animals per conditions were recovered from NGM plates with M9 medium, washed three times in 2 mLM9 to eliminate residual bacteria, and resuspended in 500 μL M9 medium. Worms were transferred in 24-well standard Seahorse plates (#100777-004) (50 worms per well) and oxygen consumption was measured 6 times. Respiration rates were normalized to the number of worms in each individual well. NAD measurement by HPLC For NAD+ quantification, approximately 1000 worms were collected in M9 buffer, washed five times to remove residual bacteria and flash-frozen in liquid nitrogen and stored at −80° C. until analysis. Extraction was started by adding 250 μl of 1.6M perchloric acid on frozen samples, followed by extensive homogenization in a Qiagen tissuelyser, and centrifugation at 20.000 g for 15 min. The supernatant was recovered and neutralized with a 3M potassium carbonate solution. After centrifugation, 100 μl of supernatant was filtered and used for NAD measurement using an HPLC system (Agilent) with a Supelco LC-18-T column (Sigma), as described in Yoshino et al. (Yoshino, K. F. Mills, M. J. Yoon, S. Imai, Nicotinamide Mononucleotide, a Key NAD(+) Intermediate, Treats the Pathophysiology of Diet- and Age-Induced Diabetes in Mice. Cell Metab 14, 528 (2011)).

C. elegans [4] = assay: NAD measurement by HPLC in worms; type: in vivo; conditions: day 4 of adulthood
Experimental: as §1, with “After centrifugation, 100 μl of supernatant was filtered and used for NAD measurement using an HPLC system (Agilent) with a Supelco LC-18-T column (Sigma), as described in Yoshino et al. (Yoshino, K. F. Mills, M. J. Yoon, S. Imai, Nicotinamide Mononucleotide, a Key NAD(+) Intermediate, Treats the Pathophysiology of Diet- and Age-Induced Diabetes in Mice. Cell Metab 14, 528 (2011)).” left out

C. elegans [5] = assay: Worm lifespan analysis; type: in vivo; conditions: for variation compared to control (%): vs N2 + water
Experimental: Worm Lifespan Analysis Lifespan tests were performed as described in Mouchiroud et al (L. Mouchiroud et al., Pyruvate imbalance mediates metabolic reprogramming and mimics lifespan extension by dietary restriction in Caenorhabditis elegans. Aging Cell 10, 39 (2011)). Briefly, 60-100 animals were used per conditions and scored every other day. All lifespan experiments were performed at 20° C. […] Animals were exposed to compounds during the full life from eggs until death. To ensure a permanent exposure to the compound, plates were changed twice a week. All the compounds used in this study were dissolved in a water stock solution.

GPR109A = target: T1, GPR109A (Homo sapiens, UniProt Q8TDS4); type: cell-based; conditions: GPR109A-expressing Chem-4 cells
T1 construct: host or cells: Chem-4 cells (Ready-to-Assay GPR109A Nicotinic Acid Receptor Cells)
Experimental: GPR109A—Calcium Mobilization Assay. Ready-to-Assai™ GRP109A Nicotinic Acid Receptor Cells were used to measure calcium mobilization as specified by the manufacturer (Millipore). Calcium flux was determined using excitation at 340 and 380 nm in a fluorescence spectrophotometer (Victor X4, Perkin Elmer) in a 180 seconds time course, adding the ligand at 60 seconds. Internal validation was made using 0.1% Triton X-100 for total fluorophore release and 10 mM EGTA to chelate free calcium. Similarly, GPR109A specificity was internally validated using control cells devoid of GRP109A overexpression. Liver triglyceride measurement Liver triglycerides were measured from 20 mg of liver tissue using a variation of the Folch method, as described in Bai et al. (Bai et al., PARP-2 regulates SIRT1 expression and whole-body energy expenditure. (2011). Cell Metab 13, 450-460.

T1 sequence (Q8TDS4 whole entry): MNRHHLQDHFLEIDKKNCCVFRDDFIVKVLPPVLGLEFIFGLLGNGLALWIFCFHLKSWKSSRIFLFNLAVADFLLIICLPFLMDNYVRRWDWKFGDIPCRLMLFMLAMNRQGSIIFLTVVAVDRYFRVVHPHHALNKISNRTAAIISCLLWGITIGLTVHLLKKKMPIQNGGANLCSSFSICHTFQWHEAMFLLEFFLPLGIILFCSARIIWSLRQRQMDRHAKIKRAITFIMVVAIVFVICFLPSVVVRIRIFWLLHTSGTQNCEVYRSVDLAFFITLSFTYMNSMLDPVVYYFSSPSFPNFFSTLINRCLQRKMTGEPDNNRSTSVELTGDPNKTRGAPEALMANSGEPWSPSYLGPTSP

O=C1N=C2SCC=C2c2ccccc21 [TIQ-A]
intracellular NAD+ content upon PARP inhibition (C2C12 myotubes): confirmed the increase in NAD^+ content

O=C(O)c1cccnc1 [NA, nicotinic acid, reference compound]
muscle NAD+ content (C57Bl/6J mice): significantly enhanced muscle NAD^+ content

NC(=O)c1cccnc1 [NAM, nicotinamide]
expression of genes of mitochondrial oxidative metabolism (cts-1, cox-4) (C. elegans [1]; day 3 of adulthood): trend for increased cts-1 expression | daf-16 expression (C. elegans [1]; in vivo): without affecting daf-16 mRNA levels; also recorded: daf-16 was unchanged | sod-3 expression (C. elegans [1]; in vivo): significantly higher sod-3 expression; also recorded: expression of sod-3 was increased | mitochondrial content in body wall muscle (C. elegans [2]): increase muscle mitochondrial content; also recorded: increased mitochondrial content in body wall muscle | mitochondrial morphology in body wall muscle (C. elegans [2]): affect mitochondrial morphology | oxygen consumption (respiration) (C. elegans [3]): increased respiration; also recorded: Oxygen consumption was increased | NAD+ levels in C. elegans (C. elegans [4]): increased NAD+ levels | increase of worm lifespan (C. elegans [5]; FIG. 39B): 18% | mean lifespan ± SE (C. elegans [5]; N2, 200 nM): 23.5 ± 1.03 days | variation compared to control (%) (C. elegans [5]; N2, 200 nM): +18.1% | mean lifespan ± SE (C. elegans [5]; N2, 500 nM): 22.6 ± 0.92 days | variation compared to control (%) (C. elegans [5]; N2, 500 nM): +13.5% | mean lifespan ± SE (C. elegans [5]; N2, 1000 nM): 21.8 ± 0.85 days | variation compared to control (%) (C. elegans [5]; N2, 1000 nM): +9.5% | lifespan in sir-2.1(ok434) mutant / sir-2.1 dependence (C. elegans [5]; sir-2.1(ok434) mutant worms): sir-2.1-dependent fashion | lifespan (C. elegans [5]; wild type N2 worms): extended lifespan

NC(=O)c1ccc[n+]([C@@H]2O[C@H](COP(=O)([O-])O)[C@@H](O)[C@H]2O)c1 [NMN, nicotinamide mononucleotide, reference compound]
NAD+ levels in liver (C57Bl/6J mice): increased NAD^+ levels in liver | muscle NAD+ content (C57Bl/6J mice): only NR and NA significantly enhanced muscle NAD^+ content | GPR109A activation (calcium flux) (GPR109A): did not activate GPR109A

C[C@]1(c2nc3c(C(N)=O)cccc3[nH]2)CCCN1 [ABT-888]
lifespan extension (C. elegans [5]; 100 nM (FIG. 34B)): 15% | mean lifespan ± SE (C. elegans [5]; N2, 100 nM, listed as ABT): 22.3 ± 1.01 days and 22.5 ± 1.05 days | mean lifespan ± SE (C. elegans [5]; N2, 500 nM): 22.1 ± 1.20 days | variation compared to control (%) (C. elegans [5]; N2, 500 nM): +13.9% | mean lifespan ± SE (C. elegans [5]; N2, 1000 nM): 20.0 ± 1.23 days | variation compared to control (%) (C. elegans [5]; N2, 1000 nM): +3.6%
